Values after ≈ are worked out from the molar mass of the structure shown.
Assays:
E. coli K12 PBP3 = target: T1, E. coli K12 PBP3 (Escherichia coli, UniProt P0AD68); test: biochemical; type: binding
T1 construct: made in house
How it was run: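 Fluorescence polarization (ex 490/em 520 nm) competition of inhibitors against Bocillin-FL at 0.1 μM, read up to 60 min. Final PBP levels: E. coli PBP3 1.5 μM; A. baumannii PBP2 2.5 μM, PBP3 0.2 μM in Tris pH 8.0/NaCl/glycerol/Tween 20; N. gonorrhoeae PBP2 […] in Hepes pH 8.0/NaCl/glycerol. EC50 = concentration halving PBP-bound Bocillin-FL.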

E. coli ATCC 25922 = test: Broth microdilution MIC in CAMHB; type: cell-based; settings: Escherichia coli, ATCC25922; MHB; E. coli ATCC 25922; read-out: Minimum Inhibitory Concentration, E. coli 25922
Procedure: (§1) Example III: In Vitro Antibacterial Assays
(§2) To determine the ability of test compounds to inhibit the growth of bacterial strains, classic cell based broth microdilution minimum inhibitory concentration (MIC) assays were employed. MIC assays are performed according to CLSI methods except where otherwise noted (CLSI, 2018 and CLSI, 2019). The reference type strain E. coli ATCC 25922; the wild-type parent strain E. coli AG100; the hyper-permeable E. coli 901C and E. coli D22; and the E. coli AG100A strain lacking the acrAB efflux pump encoding genes were used to determine the ability of the PBP inhibitors to penetrate the outer membrane of gram-negative bacteria and inhibit bacterial growth. […] The P. aeruginosa ATCC 27853 and A. baumannii ATCC 19606, along with the hyper-permeable P. aeruginosa ATCC 35151 and an engineered efflux pump-compromised strain of P. aeruginosa (ΔmexAB-oprM) were used to determine the ability of PBP inhibitors to penetrate the outer membrane of P. aeruginosa and A. baumannii and assess antibacterial activity against these important gram-negative organisms.
(§3) Briefly, cryo-preserved bacterial cultures of challenge strains are streaked for isolation on appropriate agar medium, in this case cation-adjusted Mueller Hinton agar. Following incubation to allow growth of the colonies, plates are sealed with parafilm and stored refrigerated for up to two weeks. For preparation of assay inoculum and to ensure low variability, at least 5 colonies are picked from the agar plates with an inoculating loop and aseptically transferred to a culture tube containing 3 mL of cation-adjusted Mueller Hinton broth (CAMHB). The broth culture is grown for 3-5 hours at 37° C. with shaking at 200 rpm. Meanwhile, 2-fold serial dilutions of test compounds are conducted in a 96-well plate with a final volume of 75 μL per well at 2-fold the final desired concentration. After the dilution plates are set up the growing cultures are then diluted in a cuvette containing CAMHB and the optical density is measured at 600 nm. The inoculum is diluted such that 75 μL of this culture in CAMHB results in a starting bacterial concentration of 2-8×10^5 CFU/mL when added to the dilution plates. The plates are incubated for 16-20 hours for Enterobacteriaceae and Pseudomonas and 20-24 hours for Acinetobacter at 37° C. The MIC values are read visually as the lowest concentration well with no bacterial growth.

P. aeruginosa ATCC 27853 = test: Broth microdilution MIC in CAMHB; type: cell-based; settings: Pseudomonas aeruginosa, ATCC27853; MHB; read-out: Minimum Inhibitory Concentration, P. aeruginosa ATCC 27853
Procedure: as §1, §2, §3

E. coli D22 = test: Broth microdilution MIC in CAMHB; type: cell-based; settings: Escherichia coli; MHB; hyper-permeable E. coli D22; read-out: Minimum Inhibitory Concentration, E. coli D22
Procedure: as §1, §2, §3

A. baumannii ATCC 19606 = test: Broth microdilution MIC in CAMHB; type: cell-based; settings: Acinetobacter baumannii, ATCC19606; MHB; read-out: Minimum Inhibitory Concentration, A. baumannii ATCC 19606
Procedure: as §1, §2, §3

[1] = system: K. pneumoniae 848844 producing SHV-11 and KPC-2; test: Broth microdilution MIC in CAMHB; type: cell-based; settings: Klebsiella pneumoniae, read-out: Minimum Inhibitory Concentration, K. pneumoniae 848844
Procedure: as §1, §2, §3

[2] = system: P. aeruginosa (ΔmexAB-oprM); test: Broth microdilution MIC in CAMHB; type: cell-based; settings: Pseudomonas aeruginosa, read-out: Minimum Inhibitory Concentration, P. aeruginosa ΔmexAB-OprM
Procedure: as §1, §2, §3

[3] = system: K. pneumoniae UMM producing SHV-5 and KPC-2; test: Broth microdilution MIC in CAMHB; type: cell-based; settings: Klebsiella pneumoniae, read-out: Minimum Inhibitory Concentration, K. pneumoniae UMM
Procedure: as §1, §2, §3

[4] = system: K. pneumoniae SI-117 producing VIM-1; test: Broth microdilution MIC in CAMHB; type: cell-based; settings: Klebsiella pneumoniae, read-out: Minimum Inhibitory Concentration, K. pneumoniae SI-117
Procedure: as §1, §2, §3

E. coli 901C = test: Broth microdilution MIC in CAMHB; type: cell-based; settings: Escherichia coli; MHB; hyper-permeable E. coli 901C; read-out: Minimum Inhibitory Concentration, E. coli 901C
Procedure: as §1, §2, §3

P. aeruginosa ATCC 35151 = test: Broth microdilution MIC in CAMHB; type: cell-based; settings: Pseudomonas aeruginosa, ATCC35151; MHB; hyper-permeable strain; read-out: Minimum Inhibitory Concentration, P. aeruginosa ATCC 35151
Procedure: as §1, §2, §3

E. coli AG100 = test: Broth microdilution MIC in CAMHB; type: cell-based; settings: Escherichia coli; MHB; wild-type parent strain E. coli AG100; read-out: Minimum Inhibitory Concentration, E. coli AG100
Procedure: as §1, §2, §3

E. coli AG100A = test: Broth microdilution MIC in CAMHB; type: cell-based; settings: Escherichia coli, read-out: Minimum Inhibitory Concentration, E. coli AG100A
Procedure: as §1, §2, §3

P. aeruginosa PBP3 = target: T2, P. aeruginosa PBP3 (Pseudomonas aeruginosa, UniProt G3XD46); test: Bocillin-FL fluorescence polarization competition binding assay, P. aeruginosa PBP3; settings: fluorescence polarization competition binding assay using Bocillin-FL
T2 construct: made in house
How it was run: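 Binding of boronic acid inhibitors to purified Pseudomonas aeruginosa (PA01) PBP3 was measured by fluorescence polarization competition with Bocillin-FL, a fluorescent penicillin V. Reactions of 80 μl contained 0.75 μM PBP3 and 0.1 μM Bocillin-FL in 50 mM Hepes (pH 8.0), 300 mM NaCl and 5% (v/v) glycerol, in black 384-well plates. FP (Excitation 490 nm, Emission 520 nm) was read for up to 60 minutes. EC50 is the concentration that halves PBP-bound Bocillin-FL.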

T1 sequence (P0AD68 1-577): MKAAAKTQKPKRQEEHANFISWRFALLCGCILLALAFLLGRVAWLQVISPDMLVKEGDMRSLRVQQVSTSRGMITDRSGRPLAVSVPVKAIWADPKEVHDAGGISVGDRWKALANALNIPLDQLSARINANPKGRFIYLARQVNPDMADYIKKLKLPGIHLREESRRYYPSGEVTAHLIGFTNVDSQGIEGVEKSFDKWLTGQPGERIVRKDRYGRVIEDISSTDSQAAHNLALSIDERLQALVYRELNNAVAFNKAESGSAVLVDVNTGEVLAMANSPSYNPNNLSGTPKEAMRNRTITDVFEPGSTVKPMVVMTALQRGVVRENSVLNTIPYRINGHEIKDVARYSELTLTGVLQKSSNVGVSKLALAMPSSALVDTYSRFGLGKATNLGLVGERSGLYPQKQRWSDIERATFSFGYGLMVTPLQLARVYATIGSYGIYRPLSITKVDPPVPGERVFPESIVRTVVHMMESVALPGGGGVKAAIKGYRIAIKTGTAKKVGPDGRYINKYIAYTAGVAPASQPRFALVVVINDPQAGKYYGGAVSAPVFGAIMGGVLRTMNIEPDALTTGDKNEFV
T2 sequence (G3XD46 whole entry): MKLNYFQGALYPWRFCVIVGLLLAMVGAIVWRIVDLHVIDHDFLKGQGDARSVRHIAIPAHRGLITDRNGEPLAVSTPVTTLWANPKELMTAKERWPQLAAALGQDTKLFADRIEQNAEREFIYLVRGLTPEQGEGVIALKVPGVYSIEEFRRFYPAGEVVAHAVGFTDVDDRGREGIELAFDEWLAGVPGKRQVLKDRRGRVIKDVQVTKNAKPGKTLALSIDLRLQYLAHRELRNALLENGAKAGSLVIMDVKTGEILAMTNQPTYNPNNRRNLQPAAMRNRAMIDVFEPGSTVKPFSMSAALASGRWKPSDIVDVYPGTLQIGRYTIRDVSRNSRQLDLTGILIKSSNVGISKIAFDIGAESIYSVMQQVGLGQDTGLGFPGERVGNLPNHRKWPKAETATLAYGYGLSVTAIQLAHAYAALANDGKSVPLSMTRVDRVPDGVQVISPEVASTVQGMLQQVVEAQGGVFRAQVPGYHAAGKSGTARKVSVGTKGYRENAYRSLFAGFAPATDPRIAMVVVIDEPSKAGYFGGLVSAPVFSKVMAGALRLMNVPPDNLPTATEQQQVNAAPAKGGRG

Row | SMILES | EC50 (E. coli K12 PBP3) | MIC (E. coli ATCC 25922) | MIC (P. aeruginosa ATCC 27853) | MIC (E. coli D22) | MIC (A. baumannii ATCC 19606) | MIC [1] | MIC [2] | MIC [3] | MIC [4] | MIC (E. coli 901C) | MIC (P. aeruginosa ATCC 35151) | MIC (E. coli AG100) | MIC (E. coli AG100A) | P. aeruginosa PBP3 Potency (P. aeruginosa PBP3)
1 | CCN1C[C@H](C)N(C(=O)NC(C(=O)N[C@H]2Cc3cccc(C(=O)O)c3OB2O)c2c(F)cc(O)cc2F)C(=O)C1=O (stereo partly drawn) [Example 232, (3R)-3-(2-(2,6-difluoro-4-hydroxyphenyl)-2-((S)-4-ethyl-6-methyl-2,3-dioxopiperazine-1-carboxamido)acetamido)-2-hydroxy-3,4-dihydro-2H-benzo[e][1,2]oxaborinine-8-carboxylic acid] | < 30 µM | 8 to 16 µg/mL (≈ 13.9 to 27.9 µM) | > 128 µg/mL | 32 to 64 µg/mL (≈ 55.7 to 111 µM) | > 128 µg/mL | 8 to 16 µg/mL (≈ 13.9 to 27.9 µM) | 8 to 16 µg/mL (≈ 13.9 to 27.9 µM) | < 0.25 µg/mL | 2 to 4 µg/mL (≈ 3.48 to 6.96 µM) | 32 to 64 µg/mL (≈ 55.7 to 111 µM) | 2 to 4 µg/mL (≈ 3.48 to 6.96 µM) | 32 to 64 µg/mL (≈ 55.7 to 111 µM) | 32 to 64 µg/mL (≈ 55.7 to 111 µM) | D (D represents a potency <10 μM)
2 | C[C@H]1CN(CCF)C(=O)C(=O)N1C(=O)NC(C(=O)N[C@H]1Cc2cccc(C(=O)O)c2OB1O)c1c(F)cc(O)cc1F (stereo partly drawn) [Example 233, (3R)-3-(2-(2,6-difluoro-4-hydroxyphenyl)-2-((S)-4-(2-fluoroethyl)-6-methyl-2,3-dioxopiperazine-1-carboxamido)acetamido)-2-hydroxy-3,4-dihydro-2H-benzo[e][1,2]oxaborinine-8-carboxylic acid] | < 30 µM | 8 to 16 µg/mL (≈ 13.5 to 27 µM) | > 128 µg/mL | 32 to 64 µg/mL (≈ 54 to 108 µM) | > 128 µg/mL | 8 to 16 µg/mL (≈ 13.5 to 27 µM) | > 128 µg/mL | < 0.25 µg/mL | 2 to 4 µg/mL (≈ 3.38 to 6.75 µM) | 32 to 64 µg/mL (≈ 54 to 108 µM) | 8 to 16 µg/mL (≈ 13.5 to 27 µM) | 32 to 64 µg/mL (≈ 54 to 108 µM) | 32 to 64 µg/mL (≈ 54 to 108 µM) | D (D represents a potency <10 μM)
3 | C[C@H]1CN(CCN)C(=O)C(=O)N1C(=O)NC(C(=O)N[C@H]1Cc2cccc(C(=O)O)c2OB1O)c1c(F)cc(O)cc1F (stereo partly drawn) [Example 234, (3R)-3-(2-((S)-4-(2-aminoethyl)-6-methyl-2,3-dioxopiperazine-1-carboxamido)-2-(2,6-difluoro-4-hydroxyphenyl)acetamido)-2-hydroxy-3,4-dihydro-2H-benzo[e][1,2]oxaborinine-8-carboxylic acid] | < 30 µM | 8 to 16 µg/mL (≈ 13.6 to 27.2 µM) | > 128 µg/mL | 8 to 16 µg/mL (≈ 13.6 to 27.2 µM) | > 128 µg/mL | 8 to 16 µg/mL (≈ 13.6 to 27.2 µM) | 8 to 16 µg/mL (≈ 13.6 to 27.2 µM) | 0.5 to 1 µg/mL (≈ 0.848 to 1.7 µM) | 2 to 4 µg/mL (≈ 3.39 to 6.79 µM) | 32 to 64 µg/mL (≈ 54.3 to 109 µM) | 2 to 4 µg/mL (≈ 3.39 to 6.79 µM) | 32 to 64 µg/mL (≈ 54.3 to 109 µM) | 32 to 64 µg/mL (≈ 54.3 to 109 µM) | D (D represents a potency <10 μM)
